Each structure is given as a SMILES string.

The values below come from patent publication US20080254155A1, “Use of Ginkgo Biloba Extract in Preparation of a Composition for Lowering Cholesterol” (SHANGHAI BIOCHIP CO., LTD, priority 2005, published 2008).

In this test the test system is HepG2 cells. Nature of the test: Cellular cholesterol in HepG2 cells (cholesterol test kit). To be noted: HepG2, 1 μM lovastatin, 6-hr culture. The class given is cell-based, human. How it is done:
2) Cell Culture and Treatment • (1) Cell Source: HepG2 ATCC • (2) Condition of Culture • Medium: MEM (Minimum essential medium)+10% FBS • Incubation: 37° C., 5% CO2 • Passage and Collection: 0.05% trypsin+0.02% EDTA • (3) Cell Treatment:
Cells were cultured in petri dishes of φ×10 cm (falcon) and grown to the desired proliferation, then detached and transferred to a 6-well plate (falcon). The cells were allowed to adhere and proliferate to the desired density (about 60%-70% confluence), and then treated and grouped as indicated in the table below.
In order to minimize the interference from the cytokines and lipids in serum without sacrificing the growth, the medium was replaced with MEM+2% FBS during treatment.
For every batch of cells, each treatment was repeated in 6 replicates. The cells were treated at different time points and collected at the same time.
The cholesterol test kit from Shanghai JieMen Biotechnology Joint-Corporate was used in accordance to the manufacturer's instruction.

For the compound `CC[C@H](C)C(=O)O[C@H]1C[C@@H](C)C=C2C=C[C@H](C)[C@H](CC[C@@H]3C[C@@H](O)CC(=O)O3)[C@H]21` [Positive Control, lovastatin], the Cellular cholesterol came out at 34.23 ± 2.38 μg/mg protein.
